# Laboratory results taken from patent publication US5888998A, “2-oxo-1-azetidine sulfonic acid derivatives as potent β-lactamase inhibitors” (Synphar Laboratories, Inc., priority 1997, dated 1999).
# Structures can show the parent of a compound that is named as a salt.
# Columns and labels:
# cephalosporinase = biological target: T1, cephalosporinase (Pseudomonas aeruginosa, UniProt P24735); experiment: β-lactamase inhibitory activity, spectrophotometric rate assay with nitrocefin as substrate; type: biochemical, P. aeruginosa 46012
# T1 construct: nitrocefin as substrate; purification not described
# T1 sequence (P24735 27-397): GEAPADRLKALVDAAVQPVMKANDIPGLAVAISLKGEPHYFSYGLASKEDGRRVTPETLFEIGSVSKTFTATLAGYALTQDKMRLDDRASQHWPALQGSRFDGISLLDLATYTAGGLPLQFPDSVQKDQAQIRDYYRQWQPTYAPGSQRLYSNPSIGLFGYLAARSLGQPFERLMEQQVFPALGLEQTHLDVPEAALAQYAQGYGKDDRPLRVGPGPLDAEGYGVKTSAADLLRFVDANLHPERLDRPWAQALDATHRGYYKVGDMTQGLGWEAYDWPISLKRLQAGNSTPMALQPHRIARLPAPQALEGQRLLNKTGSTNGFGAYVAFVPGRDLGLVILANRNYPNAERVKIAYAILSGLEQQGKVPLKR
# Text: As already said, the oxyimino fragment i.e., =N--OR2 in the formula (I) in its `anti` orientation provides excellent synergy with a β-lactam antibiotic against class C β-lactamase (cephalosporinase) producing microorganisms, P. aeruginosa, in particular. Thus this invention includes only those compounds having the formula (I) in which the oxyimino group (=N--OR2) is specifically in the `anti` orientation as shown in (I). Furthermore, the inhibitory activity against the isolated β-lactamase (e.g., cephalosporinase from P. aeruginosa 46012) and the synergy with a β-lactam antibiotic is greatly influenced by the nature of the heterocyclic ring represented by R1 and the nature of the substituent in the oxime fragment represented by R2.
# The inhibitory activities of present compounds (β-lactamase inhibitors) against cephalosporinase was measured by spectrophotometric rate assay using […] and using nitrocefin as a substrate (J. Antimicrob. Chemother., vol. 28, pp 775-776, 1991).
# E. cloacae 40054 = experiment: MIC of ceftazidime, microbroth dilution; type: cell-based; details: Enterobacter cloacae, 40054, 18 h, read-out: MIC of ceftazidime alone
# Method: (§1) After incubation in Mueller-Hinton Broth (Difco) at 37° C. for 18 h, the bacterial suspension was diluted and about 10^5 CFU/ml was applied to the drug-containing Mueller-Hinton Broth in each well of 96 well plate. The MICs were recorded after 18 h of incubation at 37° C. on the lowest combinations of drug that inhibited visible growth of bacteria.
# E. cloacae MNH-2 = experiment: MIC of ceftazidime, microbroth dilution; type: cell-based; details: Enterobacter cloacae, MNH2, 18 h, read-out: MIC of ceftazidime alone
# Method: as §1
# P. aeruginosa 46012 (R) = experiment: MIC of ceftazidime, microbroth dilution; type: cell-based; details: Pseudomonas aeruginosa, 18 h, read-out: MIC of ceftazidime alone
# Method: as §1, with “[…]. After” for “After”
# P. aeruginosa AU-5 = experiment: MIC of ceftazidime, microbroth dilution; type: cell-based; details: Pseudomonas aeruginosa, AU5, 18 h, read-out: MIC of ceftazidime alone
# Method: as §1, with “[…]. After” for “After”
# P. aeruginosa M 2297 = experiment: MIC of ceftazidime, microbroth dilution; type: cell-based; details: Pseudomonas aeruginosa, M2297, 18 h, read-out: MIC of ceftazidime alone
# Method: as §1, with “[…]. After” for “After”
# P. aeruginosa AU-1 = experiment: MIC of ceftazidime, microbroth dilution; type: cell-based; details: Pseudomonas aeruginosa, AU1, 18 h, read-out: MIC of ceftazidime alone
# Method: as §1, with “[…]. After” for “After”
# P. aeruginosa M 1405 = experiment: MIC of ceftazidime, microbroth dilution; type: cell-based; details: Pseudomonas aeruginosa, M1405, 18 h, read-out: MIC of ceftazidime alone
# Method: as §1, with “[…]. After” for “After”
# P. aeruginosa AU-7 = experiment: MIC of ceftazidime, microbroth dilution; type: cell-based; details: Pseudomonas aeruginosa, AU7, 18 h, read-out: MIC of ceftazidime alone
# Method: as §1, with “[…]. After” for “After”
# P. aeruginosa AU-8 = experiment: MIC of ceftazidime, microbroth dilution; type: cell-based; details: Pseudomonas aeruginosa, AU8, 18 h, read-out: MIC of ceftazidime alone
# Method: as §1, with “[…]. After” for “After”
# P. aeruginosa L46004 = experiment: MIC of ceftazidime, microbroth dilution; type: cell-based; details: Pseudomonas aeruginosa, L46004, 18 h, read-out: MIC of ceftazidime alone
# Method: as §1, with “[…]. After” for “After”
# [1] = system: P. aeruginosa PAO 303 carb-4; experiment: MIC of ceftazidime, microbroth dilution; type: cell-based; details: Pseudomonas aeruginosa, PAO303CARB4, 18 h, read-out: MIC of ceftazidime alone
# Method: as §1, with “[…]. After” for “After”
# P. aeruginosa CT-122 = experiment: MIC of ceftazidime, microbroth dilution; type: cell-based; details: Pseudomonas aeruginosa, CT122, 18 h, read-out: MIC of ceftazidime alone
# Method: as §1, with “[…]. After” for “After”
# P. aeruginosa CT-137 = experiment: MIC of ceftazidime, microbroth dilution; type: cell-based; details: Pseudomonas aeruginosa, CT137, 18 h, read-out: MIC of ceftazidime alone
# Method: as §1, with “[…]. After” for “After”
# P. fluorescens sp 5953 = experiment: MIC of ceftazidime, microbroth dilution; type: cell-based; details: Pseudomonas fluorescens, SP5953, 18 h, read-out: MIC of ceftazidime alone
# Method: as §1, with “[…]. After” for “After”
# E. aerogenes S-95 = experiment: MIC of ceftazidime, microbroth dilution; type: cell-based; details: Klebsiella aerogenes, S95, 18 h, read-out: MIC of ceftazidime alone
# Method: as §1, with “[…]. After” for “After”
# E. aerogenes 41006 = experiment: MIC of ceftazidime, microbroth dilution; type: cell-based; details: Klebsiella aerogenes, 41006, 18 h, read-out: MIC of ceftazidime alone
# Method: as §1, with “[…]. After” for “After”
# [2] = system: P. aeruginosa 46220 DR-2-1; experiment: MIC of ceftazidime, microbroth dilution; type: cell-based; details: Pseudomonas aeruginosa, 46220DR21, 18 h, read-out: MIC of ceftazidime alone
# Method: as §1, with “[…]. After” for “After”
# P. aeruginosa CT-144 = experiment: MIC of ceftazidime, microbroth dilution; type: cell-based; details: Pseudomonas aeruginosa, CT144, 18 h, read-out: MIC of ceftazidime alone
# Method: as §1, with “[…]. After” for “After”
# P. aeruginosa AU-10 = experiment: MIC of ceftazidime, microbroth dilution; type: cell-based; details: Pseudomonas aeruginosa, AU10, 18 h, read-out: MIC of ceftazidime alone
# Method: as §1, with “[…]. After” for “After”
# [3] = system: P. aeruginosa sp 2439 Wt.; experiment: MIC of ceftazidime, microbroth dilution; type: cell-based; details: Pseudomonas aeruginosa, SP2439WT., 18 h, read-out: MIC of ceftazidime alone
# Method: as §1, with “[…]. After” for “After”
# P. aeruginosa 46017 = experiment: MIC of ceftazidime, microbroth dilution; type: cell-based; details: Pseudomonas aeruginosa, 46017, 18 h, read-out: MIC of ceftazidime alone
# Method: as §1, with “[…]. After” for “After”
# M. morganii 36030 = experiment: MIC of ceftazidime, microbroth dilution; type: cell-based; details: Morganella morganii, 36030, 18 h, read-out: MIC of ceftazidime alone
# Method: as §1, with “[…]. After” for “After”
# M. morganii 36014 = experiment: MIC of ceftazidime, microbroth dilution; type: cell-based; details: Morganella morganii, 36014, 18 h, read-out: MIC of ceftazidime alone
# Method: as §1, with “[…]. After” for “After”
# P. aeruginosa 46220 DR-2 = experiment: MIC of ceftazidime, microbroth dilution; type: cell-based; details: Pseudomonas aeruginosa, 46220DR2, alone, 18 h, 37° C.
# Method: as §1, with “The MICs of the antibiotics (ceftazidime) alone, the MICs of ceftazidime in combination with reference compounds particularly aztreonam (ref. compd. I) and the MICs of the β-lactamase inhibitors (10 μg/ml) of the present invention in combination with ceftazidime were determined with the same β-lactamase producing bacteria. After” for “After”
# E. cloacae P99 = experiment: microbe, parasite or virus in culture; type: cell-based; details: Enterobacter cloacae, P99, 18 h, read-out: MIC of ceftazidime alone
# Method: as §1
# β-lactamase = details: cited from earlier work
smiles,measurement,setting,value
C[C@H]1[C@H](NC(=O)/C(=N/OCc2cc(=O)c(O)cn2O)c2cccn2C)C(=O)N1S(=O)(=O)O [Compound 15],IC50,cephalosporinase,900 nM
C[C@H]1[C@H](NC(=O)/C(=N/OCc2cc(=O)c(O)cn2O)c2cccs2)C(=O)N1S(=O)(=O)O [Compound 3],IC50,cephalosporinase,10 nM
C[C@H]1[C@H](NC(=O)/C(=N/OCc2cc(=O)c(O)cn2O)c2cccs2)C(=O)N1S(=O)(=O)O [Compound 2],IC50,cephalosporinase,40 nM
C[C@H]1[C@H](NC(=O)/C(=N/OCC(N)COC(=O)/C(=N\OCc2cc(=O)c(O)cn2O)c2cccs2)c2cccs2)C(=O)N1S(=O)(=O)O (some centres unmarked) [Compound 16],IC50,cephalosporinase,4.5 nM
C[C@H]1[C@H](NC(=O)/C(=N\OCc2cc(=O)c(O)cn2O)c2cccs2)C(=O)N1S(=O)(=O)O [Ref. compd. III],IC50,cephalosporinase,40 nM
C/C(=N/OCc1cc(=O)c(O)cn1O)C(=O)NCCO/N=C(/C(=O)N[C@@H]1C(=O)N(S(=O)(=O)O)[C@H]1C)c1cccs1 [Compound 11],IC50,cephalosporinase,50 nM
C[C@H]1[C@H](NC(=O)/C(=N/OCCSCc2cc(=O)c(O)cn2O)c2cccs2)C(=O)N1S(=O)(=O)O [Compound 7],IC50,cephalosporinase,60 nM
CC(C)(O/N=C(\C(=O)N[C@@H]1C(=O)N2C(C(=O)[O-])=C(C[n+]3ccccc3)CS[C@H]12)c1csc(N)n1)C(=O)O [ceftazidime],MIC,E. cloacae 40054,> 32 µg/mL
same,MIC,E. cloacae MNH-2,> 32 µg/mL
same,MIC,P. aeruginosa 46012 (R),> 32 µg/mL
same,MIC,P. aeruginosa AU-5,> 32 µg/mL
same,MIC,P. aeruginosa M 2297,> 32 µg/mL
same,MIC,P. aeruginosa AU-1,> 32 µg/mL
same,MIC,P. aeruginosa M 1405,> 32 µg/mL
same,MIC,P. aeruginosa AU-7,> 32 µg/mL
same,MIC,P. aeruginosa AU-8,> 32 µg/mL
same,MIC,P. aeruginosa L46004,> 32 µg/mL
same,MIC,[1],32 µg/mL
same,MIC,P. aeruginosa CT-122,32 µg/mL
same,MIC,P. aeruginosa CT-137,16 µg/mL
same,MIC,P. fluorescens sp 5953,> 32 µg/mL
same,MIC,E. aerogenes S-95,> 32 µg/mL
same,MIC,E. aerogenes 41006,> 32 µg/mL
same,MIC,[2],> 32 µg/mL
same,MIC,P. aeruginosa CT-144,> 32 µg/mL
same,MIC,P. aeruginosa AU-10,32 µg/mL
same,MIC,[3],> 32 µg/mL
same,MIC,P. aeruginosa 46017,> 32 µg/mL
same,MIC,M. morganii 36030,> 32 µg/mL
same,MIC,M. morganii 36014,32 µg/mL
same,MIC,P. aeruginosa 46220 DR-2,32 µg/mL
same,MIC,E. cloacae P99,> 32 µg/mL
C[C@H]1[C@H](NC(=O)/C(=N/OCCNC(=O)/C(=N\OCc2cc(=O)c(O)cn2O)c2cccs2)c2cccs2)C(=O)N1S(=O)(=O)O [Compound 9],IC50,cephalosporinase,6 nM
C[C@H]1[C@H](NC(=O)/C(=N/OCCNC(=O)c2cc(=O)c(O)c[nH]2)c2cccs2)C(=O)N1S(=O)(=O)O [Compound 13],IC50,cephalosporinase,10 nM
"C[C@H]1[C@H](NC(=O)/C(=N\OC(C)(C)C(=O)O)c2csc(N)n2)C(=O)N1S(=O)(=O)O [Ref. compd. I, Aztreonam]",IC50,cephalosporinase,130 nM
same,β-lactamase inhibitory properties,β-lactamase,possesses β-lactamase inhibitory properties
"C[C@H]1[C@H](NC(=O)/C(=N/OCc2cc(=O)c(O)c[nH]2)c2cccs2)C(=O)N1S(=O)(=O)O [Compound 14, (3S)-trans-3-[(E)-2-(2-thienyl)-2{(5-hydroxy-4-pyridon-2-ylmethoxy)imino}acetamido]-4-methyl-2-oxoazetidine-1-sulfonic acid, potassium salt]",IC50,cephalosporinase,40 nM
CC(O/N=C(/C(=O)N[C@@H]1C(=O)N(S(=O)(=O)O)[C@H]1C)c1cccs1)c1cc(=O)c(O)cn1O (some centres unmarked) [Compound 4],IC50,cephalosporinase,60 nM
C[C@H]1[C@H](NC(=O)/C(=N/OC(c2ccc(F)cc2)c2cc(=O)c(O)cn2O)c2cccs2)C(=O)N1S(=O)(=O)O (some centres unmarked) [Compound 6],IC50,cephalosporinase,100 nM
C[C@H]1[C@H](NC(=O)/C(=N/OCCNC(=O)/C(=N/OCc2cc(=O)c(O)cn2O)c2cccs2)c2cccs2)C(=O)N1S(=O)(=O)O [Compound 10],IC50,cephalosporinase,1 nM
C=CCC(O/N=C(/C(=O)N[C@@H]1C(=O)N(S(=O)(=O)O)[C@H]1C)c1cccs1)c1cc(=O)c(O)cn1O (some centres unmarked) [Compound 5],IC50,cephalosporinase,50 nM
C[C@H]1[C@H](NC(=O)/C(=N/OC(C)(C)C(=O)O)c2csc(N)n2)C(=O)N1S(=O)(=O)O [Ref. compd. II],IC50,cephalosporinase,2000 nM
C[C@H]1[C@H](NC(=O)/C(=N/OCCNC(=O)/C(=N\OCc2cc(=O)c(O)cn2O)c2csc(N)n2)c2cccs2)C(=O)N1S(=O)(=O)O [Compound 12],IC50,cephalosporinase,6 nM
"C[C@H]1[C@H](NC(=O)/C(=N/OCc2cc(=O)c(O)cn2O)c2cccs2)C(=O)N1S(=O)(=O)O [Compound 1, (3S)-trans-3-[(E)-2-(2-thienyl)-2-{(1,5-dihydroxy-4-pyridon-2-ylmethoxy)imino}acetamido]-4-methyl-2-oxoazetidine-1-sulfonic acid]",IC50,cephalosporinase,60 nM
